Assays:
PSN1 = experiment: Anti-austerity activity against human PSN1 cells assessed as cell killing in nutrient deprived medium; assay type: functional
PANC-1 [1] = experiment: Induction of apoptosis in human PANC-1 cells assessed as cell morphology by measuring red fluorescence incubated for 24 hrs in nutrient deprived medium by acridine orange and ethidium bromide dye based fluorescence microscopy analysis; assay type: functional; conditions: dose 1-5 µM
PANC-1 [2] = experiment: Antimigratory activity against human PANC1 cells assessed as wound area at 25 uM cultured in nutrient rich DMEM medium imaged every 10 mins for 24 hrs by quantitative real-time imaging based wound healing assay (reference value: 35%); assay type: functional
MIA PaCa-2 = experiment: Anti-austerity activity against human MIA PaCa-2 cells assessed as cell killing in nutrient deprived medium; assay type: functional
PANC-1 [3] = experiment: Inhibition of colony formation in human PANC-1 cells in nutrient rich DMEM medium measured treated for 24 hrs followed by replaced with fresh medium measured after 10 days by crystal violet staining based assay; assay type: functional, cell-based; conditions: dose 6.25-25 µM
[4] = Anti-austerity activity against human KLM-1 cells assessed as cell killing in nutrient deprived medium; assay type: functional
PANC-1 [5] = experiment: Anti-austerity activity against human PANC-1 cells assessed as cell killing in nutrient deprived medium; assay type: functional
[6] = target: Serine/threonine-protein kinase mTOR (Homo sapiens) (UniProt P42345); experiment: Inhibition of mTOR in human PANC-1 cells assessed as reduction in phosphorylation at S2448 incubated for 6 hrs by Western blot analysis; assay type: cell-based; conditions: dose 1-10 µM
[7] = target: RAC-alpha serine/threonine-protein kinase (Homo sapiens) (UniProt P31749); experiment: Inhibition of Akt in human PANC-1 cells assessed as reduction in phosphorylation at Ser473 incubated for 6 hrs by Western blot analysis; assay type: cell-based; conditions: dose 1-10 µM
Chain of RAC-alpha serine/threonine-protein kinase (Homo sapiens) (P31749 whole entry): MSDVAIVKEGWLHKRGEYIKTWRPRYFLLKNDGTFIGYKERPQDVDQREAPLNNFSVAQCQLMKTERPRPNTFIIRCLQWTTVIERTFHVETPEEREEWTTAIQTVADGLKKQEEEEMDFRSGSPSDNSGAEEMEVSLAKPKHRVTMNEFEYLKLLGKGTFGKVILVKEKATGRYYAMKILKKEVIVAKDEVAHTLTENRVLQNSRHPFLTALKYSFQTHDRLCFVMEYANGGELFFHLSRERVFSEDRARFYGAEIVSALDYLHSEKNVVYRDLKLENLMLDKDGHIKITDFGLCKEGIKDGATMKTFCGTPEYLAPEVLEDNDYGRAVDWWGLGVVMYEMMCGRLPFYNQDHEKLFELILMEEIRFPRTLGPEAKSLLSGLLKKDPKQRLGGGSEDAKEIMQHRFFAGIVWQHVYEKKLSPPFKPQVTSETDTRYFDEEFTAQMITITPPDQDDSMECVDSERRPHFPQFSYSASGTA

Row | inhibition [6] | inhibition [7] | Structure (SMILES) | PC50 (PSN1) [µM] | Activity (PANC-1 [1]) | Activity (PANC-1 [2]) [%] | PC50 (MIA PaCa-2) [µM] | inhibition (PANC-1 [3]) | PC50 [4] [µM] | PC50 (PANC-1 [5]) [µM]
1 | Dose-Dependent Effect | Dose-Dependent Effect | COc1c(O)cc(-c2coc3c(CC=C(C)C)c(O)cc(O)c3c2=O)cc1CC=C(C)C | 1.8 | Dose-Dependent Effect | 74 | 1.2 | Dose-Dependent Effect | 1.6 | 1
2 | – | – | CC(C)=CCc1cc(-c2coc3cc(O)c(CC=C(C)C)c(O)c3c2=O)ccc1O [LUPALBIGENIN] | 1.5 | – | – | 1.3 | – | 1 | 1
3 | – | – | CC(C)=CCc1cc(-c2coc3c(CC=C(C)C)c(O)cc(O)c3c2=O)cc(O)c1O | 10.2 | – | – | 10.9 | – | 10.1 | 10
4 | – | – | CC(C)=CCc1cc(-c2coc3cc(O)c(CC=C(C)C)c(O)c3c2=O)cc(O)c1O | 0.7 | – | – | 0.8 | – | 0.9 | 0.7
5 | – | – | COc1cc(C[C@H]2C(=O)OC[C@@H]2Cc2ccc(OC)c(OC)c2)ccc1O [ARCTIGENIN] | 0.7 | – | – | 1.9 | – | 0.8 | 0.7

— ChEMBL document CHEMBL4814009, “A new anti-austerity agent, 4'-O-methylgrynullarin from Derris scandens induces PANC-1 human pancreatic cancer cell death under nutrition starvation via inhibition of Akt/mTOR pathway” (2021)
